In patent publication US6949250B2, “Selective algaecides for control of cyanochloronta” (The United States of America as represented by the …, priority 2002, dated 2005):
Converted amounts (≈) assume the structure as drawn. “Also recorded” adds a separate entry of the source.

Legend:
O. perornata [1] = assay: Pond efficacy testing of 9,10-anthraquinone using limnocorrals: O. perornata numbers; assay type: in vivo, Oscillatoria perornata; settings: dissolved in ethanol, unpublished observations
Description: (§1) Previous research (K. K. Schrader, M. Q. de Regt, P. D. Tidwell, C. S. Tucker and S. O. Duke, Selective growth inhibition of the musty-odor producing cyanobacterium Oscillatoria cf. chalybea by natural compounds. Bull. Environ. Contam. Toxicol. (1998a), vol. 60, pp. 651-658) has identified several natural compounds from plants that are selectively toxic towards O. perornata.

O. perornata [2] = settings: cited from earlier work
MIB = assay: Pond efficacy testing of 9,10-anthraquinone using limnocorrals: MIB levels; assay type: in vivo; settings: dissolved in ethanol, unpublished observations
Description: as §1

[3] = test system: Selenastrum capricornutum; assay: Rapid bioassay screening for selective algicides (LOEC, LCIC); assay type: cell-based; settings: rapid screening
Description: (§2) These were screened in the laboratory by the method of Schrader et al. (K. K. Schrader, M. Q. de Regt, C. S. Tucker and S. O. Duke, A rapid bioassay for selective algicides. Weed Technol. (1997), vol. 11, pp. 767-774) for algicidal activity.
(§3) The anthraquinone derivatives were screened for selective toxicity towards Oscillatoria perornata, previously isolated from a Mississippi catfish pond, using the method of Schrader et al. (1997). The green alga Selenastrum capricornutum (obtained from the United States Environmental Protection Agency, Corvallis, Oreg.) was used as the representative green algal species in the bioassay since it is a common species found in southeastern United States catfish ponds. Absorbance readings were graphed, and graphs were used to determine the LOEC (lowest-observed-effect concentration) and the LCIC (lowest-complete-inhibition concentration) for each anthraquinone analog. In addition, a 96-hour 50% inhibition concentration (IC50) was determined for DNA1-19-1 and DNA2-59-1 by using the method described by Schrader et al. (1998b). Stock solutions of DNA1-19-1 and DNA2-59-1 were prepared so that final concentrations screened for 96-hour IC50 determinations were as follows: 1) 0, 0.01, 0.033, 0.1, 0.333, 1.0, 3.3, and 10.0 μM DNA1-19-1 for both O. perornata and S. capricornutum; 2) 0, 0.003, 0.01, 0.033, 0.1, 0.333, 1.0, and 3.333 μM DNA2-59-1 for O. perornata; and 3) 0, 0.1, 0.333, 1.0, 3.333, 10.0, 33.333, and 100.0 μM DNA2-59-1 for S. capricornutum. Estimation of the IC50 was determined by plotting 96-hour absorbance readings against logarithmic dilution values of the anthraquinone analogs. The screening results of the anthraquinone derivatives and commercially available analogs of anthraquinone are presented in Tables 1 and 2, respectively. The results in Table 1 reveal that DNA1-19-1 and DNA2-59-1 are the most promising analogs since these two compounds had the lowest LOEC and LCIC values for O. perornata (10 nM and 100 nM, respectively). Based upon IC50 results in Table 3, DNA2-59-1 appears to be more toxic and selective towards O. perornata than DNA1-19-1.
as §3, with “(A rapid bioassay for selective algicides. Weed Technol. (1997), vol. 11, pp. 767-774).” for “(1997).”, “(K. K. Schradar, M. Q. de Regt, P. D. Tidwell, C. S. Tucker and S. O. Duke, Selective growth inhibition of the musty-odor producing cyanobacterium Oscillatoria cf. chalybea by natural compounds. Bull. Environ. Contam. Toxicol. (1998a), vol.60, pp. 651-658).” for “(1998b).”, “The screening results of the anthraquinone derivatives and commercially available analogs of anthraquinone are presented in Tables 1 and 2, respectively. The results in Table 1 reveal that DNA1-19-1 and DNA2-59-1 are the most promising analogs since these two compounds had the lowest LOEC and LCIC values for O. perornata (10 nM and 100 nM, respectively). Based upon IC50 results in Table 3, DNA2-59-1 appears to be more toxic and selective towards O. perornata than DNA1-19-1.” left out

Oscillatoria perornata = assay: as above; assay type: cell-based; settings: rapid screening
Description: as §2, §3
as §3, with “(A rapid bioassay for selective algicides. Weed Technol. (1997), vol. 11, pp. 767-774).” for “(1997).”, “(K. K. Schradar, M. Q. de Regt, P. D. Tidwell, C. S. Tucker and S. O. Duke, Selective growth inhibition of the musty-odor producing cyanobacterium Oscillatoria cf. chalybea by natural compounds. Bull. Environ. Contam. Toxicol. (1998a), vol.60, pp. 651-658).” for “(1998b).”, “The screening results of the anthraquinone derivatives and commercially available analogs of anthraquinone are presented in Tables 1 and 2, respectively. The results in Table 1 reveal that DNA1-19-1 and DNA2-59-1 are the most promising analogs since these two compounds had the lowest LOEC and LCIC values for O. perornata (10 nM and 100 nM, respectively). Based upon IC50 results in Table 3, DNA2-59-1 appears to be more toxic and selective towards O. perornata than DNA1-19-1.” left out

| SMILES | LCIC (lowest-complete-inhibition concentration), Selenastrum capricornutum [3] | LOEC (lowest-observed-effect concentration), Selenastrum capricornutum [3] | LCIC (lowest-complete-inhibition concentration), Oscillatoria perornata (Oscillatoria perornata) | LOEC (lowest-observed-effect concentration), Oscillatoria perornata (Oscillatoria perornata) | other results |
| --- | --- | --- | --- | --- | --- |
| O=C1c2ccccc2C(=O)c2ccccc21 [9,10-anthraquinone] |  |  |  |  | reduction of numbers of O. perornata in pond (result in words) (O. perornata [1]): did not effectively reduce; effect on photosynthesis (result in words) (O. perornata [2]; Schrader et al. 2000): inhibits photosynthesis; activity / toxicity towards O. perornata in the laboratory (result in words) (O. perornata [2]; previous research (Schrader et al. 1998)): high degree of selective toxicity; also recorded: potent activity; reduction of MIB levels in pond (result in words) (MIB): did not effectively reduce |
| CC(C)(C)NCc1ccc2c(c1)C(=O)c1ccccc1C2=O.O=P(O)(O)O [DNA3-33-1, 2-[Methylamino-N-(1′1′-dimethylethyl)]-9,10-anthraquinone monophosphate] | 10,000 nM | 1,000 nM | 1,000 nM | 1,000 nM |  |
| O=C1c2ccccc2C(=O)c2cc(OCCOCCOCCO)ccc21 [DNA2-99-2, 2-[2-[2-(2-Hydroxyethoxy)ethoxy]ethoxy]-9,10-anthraquinone] |  |  |  |  | MIC ([3]; Selenastrum capricornutum, read-out: LCIC (lowest-complete-inhibition concentration), Selenastrum capricornutum): > 100 µM; minimal effective concentration ([3]; Selenastrum capricornutum, read-out: LOEC (lowest-observed-effect concentration), Selenastrum capricornutum): > 100 µM; MIC (Oscillatoria perornata; Planktothrix perornata, read-out: LCIC (lowest-complete-inhibition concentration), Oscillatoria perornata): 10 µM (≈ 3.56 µg/mL); minimal effective concentration (Oscillatoria perornata; Planktothrix perornata, read-out: LOEC (lowest-observed-effect concentration), Oscillatoria perornata): 10 µM |
| CNCc1ccc2c(c1)C(=O)c1ccccc1C2=O.O=P(O)(O)O [DNA3-19-1, 2-[Methylamino-N-(methyl)]-9,10-anthraquinone monophosphate] | 10,000 nM | 10,000 nM | 1,000 nM | 1,000 nM |  |
